Source: patent US9125898B2, “Acetam derivatives for pain relief” (NEUROTUNE AG, priority 2008, dated 2015)

Tested on: ddC induced mechanical allodynia in rats
Assay: ddC induced mechanical allodynia in rats, von Frey test
Format: in vivo, rat
Conditions: FIG. 4; 15 min after drug administration
Description: Painful peripheral NP may be induced in rats by i.v. administration of 2′,3′-dideoxycytidine (ddC) mimicking what is seen in AIDS patients undergoing antiviral therapy. The ddC test represents a useful and predictive model to study molecules with analgesic potential in human neuropathic states.
Adult male SD rats (Harlan, Italy, 150-200 g weight) were used. Animals were treated with 25 mg/kg i.v. bolus of 2′,3′-dideoxycytidine, an inhibitor of nucleoside reverse transcriptase used for AIDS therapy that in rodents induces a peripheral neuropathy resulting in allodynic responses to mechanical stimuli. Symptoms severity peaks between 5 to 10 days after administration (Joseph, E. K. et al. —Pain 107 (2004) 147-158). Ten days after administration of ddC, as an intravenous (i.v.) bolus, test substances were administered every day, once a day or b.i.d for 4 weeks. Dosing was withheld in those days in which allodynic tests were performed, and lasted for 24 h and 48 h.
NT-11624 was dissolved in distilled water and was orally by gavage administered as follows • Group 1: 100 mg/kg b.i.d. for 14 days, followed by 50 mg/kg b.i.d. for 7 days, then 50 mg/kg u.i.d. for 7 days. • Group 2: 50 mg/kg b.i.d. for 28 days.
Pregabalin (3B Pharmachem (Wuhan) International Co.) was dissolved in 1% CMC (carboxymethylcellulose) and orally administered at the dose of 15 mg/kg b.i.d. for 28 days.
Thresholds for mechanical allodynia were measured using an electronic Von Frey apparatus. […] After 4 week drug administration, additional tests were performed beyond the 60 min point, at 4, 8, 24, 48 and 56 h. Results represent the mean (±S.E.M.) of mechanical thresholds expressed in grams.
Drugs: The following substance was used: NT-11624 (batch No. 0000104580 supplied by Brane Discovery Srl, Gerenzano Italy). NT-11624 was dissolved in distilled water and given p.o. every day, except in those days in which allodynic tests were performed and lasted for 24 h, 48 h and 56 h (i.e. days 1, 3, 7, 10, 14, 21, 28).
The following groups of treatment were utilized: • NT-11624 (Group 1): rats received 100 mg/kg b.i.d. of NT-11624 for 14 days, then 50 mg/kg b.i.d. for 7 days, then 50 mg/kg u.i.d. for 7 days. • NT-11624 (Group 2): rats received 50 mg/kg b.i.d. for 28 days • Pregabalin: rats received 15 mg/kg b.i.d. for 28 days
Administration volume was 10 ml/kg body weight. Pregabalin [3B Pharmachem (Wuhan), International Co] was dissolved in CMC 1% (carboxymethylcellulose, Sigma-Aldrich, Italy), and orally given as described before. Control rats received vehicle only.
ddC intravenous injection: ddC was dissolved in saline to a concentration of 25 mg/kg (1 ml) and was administered i.v. into the rat tail vein. Control rats were treated with an equal volume of saline i.v.
The administration of ddC produces dose-dependent mechanical hypersensitivity and allodynia peaking in severity between 5-10 days after the administration. The test is usually performed at day 10.
Von Frey test: Each animal was placed in a chamber with a mesh metal floor covered by a plastic dome that enabled the animal to walk freely, but not to jump. The mechanical stimulus was then delivered in the mid-plantar skin of left hind paw using an electronic Von Frey apparatus (37400 Dynamic Plantar Aesthesiometer; Ugo Basile, Comerio, Varese, Italy). The cut-off was fixed at 50 g, while the increasing force rate (ramp duration) was settled at 20 sec. […] At day 28, additional tests were performed at 4, 8, 24, 48 and 56 h after drug administration. Results represent the mean (±S.E.M.) of mechanical thresholds expressed as grams.

NCC1(CC(=O)O)CCCCC1 [GABAPENTIN, Gabapentin, reference compound]
Reversal of ddC-induced neuropathy (mechanical threshold, von Frey): not
